The values below come from publication PMC5075052, “Modulation of the Substitution Pattern of 5-Aryl-2-Aminoimidazoles Allows Fine-Tuning of Their Antibiofilm Activity Spectrum and Toxicity” (Antimicrobial Agents and Chemotherapy, 2016).

For series [1], the system named is bone marrow-derived mesenchymal stem cells (MSC). The series can be described thus: Mammalian cell viability assay, trypan blue staining. To be noted: 12.5 μM, 6 days of exposure. In kind it is cell-based. Here is the method: (§1) The viability of two human primary cell types, namely, osteoblasts (OB) and bone marrow-derived mesenchymal stem cells (MSC), was tested according to the ISO 10993-5 standard, as previously described ([76]). Briefly, cells were seeded in 96-well tissue culture test plates (TPP; Trasadingen, Switzerland) at 5 × 10^3 cells/cm^2 in cell culture medium (advanced Dulbecco modified Eagle's medium [DMEM]) supplemented with 10% serum, 1× GlutaMAX, and 0.05 mg/ml gentamicin and were allowed to attach overnight. On the next day, the cells were exposed to (i) cell culture medium and medium with the corresponding control (0.5% ethanol or DMSO; negative controls), (ii) medium with 0.05% phenol (cytotoxic control), and (iii) medium with compounds (12.5 μM) and incubated for 2 h, 48 h, and 6 days (8 repeats for each condition). At each time point, the numbers of viable and dead cells were determined directly by trypan blue staining and indirectly by measuring metabolic activity with 3-(4,5-dimethylthiazol-2-yl)-2,5-diphenyltetrazolium bromide (MTT) staining.
The medium was removed from the wells, 1/3 trypan blue in DMEM was added to the cells, and the cells were incubated for 3 min, after which the trypan blue was removed and DMEM was added to the wells. In each of four wells, two microscopy fields were counted for viable (transparent) and dead (blue) cells.

The test system of series [2] is osteoblasts (OB). The series can be described thus: Metabolic activity, MTT staining. It counts as cell-based. To be noted: 12.5 μM, 6 days of treatment. Here is the method: as §1
(§2) The medium was removed from the wells, and 100 μl of medium supplemented with 10% serum and 0.5 mg/ml MTT was added to the cells. The cells were incubated overnight at 37°C in 5% CO2. On the next day, the medium with MTT was removed and 100 μl acidic isopropanol was added. The cells were then centrifuged at 2,300 × g, and 50 μl of the supernatant was transferred to a new 96-well plate. The absorbance at 570 nm was measured, and the background at 660 nm was measured. Four wells per condition were examined.

The subject of series [3] is bone marrow-derived mesenchymal stem cells (MSC). The series can be described thus: Metabolic activity, MTT staining. It counts as cell-based. To be noted: 12.5 μM, 6 days of treatment. As for the experimental part: as §1, §2
For series [4], the system named is osteoblasts (OB). The series can be described thus: Osteogenic differentiation, calcium and DNA assay. It counts as cell-based, human. To be noted: 12.5 μM; for calcium deposition of OB (normalized by DNA): osteogenic medium, versus solvent control. As for the experimental part: (§3) The effects of the substances on the osteogenic differentiation potential were assessed as previously described ([76]). Only the substances that allowed survival of the cells for more than 3 weeks, which is the time needed for mature osteogenic differentiation, were tested. Briefly, osteoblasts and bone marrow-derived mesenchymal stem cells were cultured in a positive solvent control (osteogenic medium with 0.5% DMSO or ethanol background), a negative control (medium without osteogenic supplements), and treated samples (osteogenic medium, 0.5% DMSO or ethanol background, and 12.5 μM test compound) with four repeats per condition. The cells in the mesenchymal stem cell and osteoblast cultures were harvested after 3 or 5 weeks, respectively, for the calcium and DNA assay.
(§4) The calcium deposition of osteoblasts and mesenchymal stem cells was measured with the calcium CPC LiquiColor test (Stanbio Laboratory, Boerne, TX) as previously described ([76]). Briefly, cell cultures were extracted with 5% trichloroacetic acid (500 μl per sample), o-cresolphthalein complex was added, and the calcium content was determined spectrophotometrically at 550 nm. The DNA content was determined as previously described ([76]). DNA values were used to normalize the calcium content. Four wells per condition were examined, and two samples from each well were taken for each assay.

In series [5] the test system is bone marrow-derived mesenchymal stem cells (MSC). The series is described as follows: Osteogenic differentiation, calcium and DNA assay. It counts as cell-based, human. To be noted: 12.5 μM; for calcium deposition of MSC (normalized by DNA): osteogenic medium, versus solvent control. Here is the method: as §3, §4
The test system of series [6] is C. albicans SC5314 + S. aureus SH1000. The series can be described thus: Mixed C. albicans-S. aureus biofilm, selective plating CFU. In kind it is cell-based, Candida albicans + Staphylococcus aureus. To be noted: 37°C. As for the experimental part: Overnight cultures of C. albicans SC5314 (YPD, 30°C) and S. aureus SH1000 (LB, 37°C) were washed with PBS, after which they were diluted in RPMI 1640 medium to obtain cell suspensions of 10^6 cells/ml for fungal cells and 10^8 cells/ml for bacteria. Equal volumes of these cell suspensions were mixed, and 100 μl of this mixed cell suspension together with compound was added to the wells of a microtiter plate in triplicate. Concentrations of 25 μM (0.0625% DMSO or ethanol) and 100 μM (0.25% DMSO or ethanol) were tested. The plates were incubated at 37°C for 90 min. After incubation, the wells were washed twice with PBS, and 200 μl of fresh RPMI 1640 medium with or without compounds was added in triplicate to the wells. After 24 h of incubation at 37°C, the medium was removed and the biofilm was washed with PBS. Next, the cells were resuspended in 100 μl of PBS by scraping them off, sonicated (1 min, 45 kHz; USC300-T; VWR, Radnor, PA, USA), and vigorously pipetted up and down. Finally, dilution series were made, and quantification of the S. aureus SH1000 and C. albicans SC5314 populations was performed using selective plating on TSA plates containing 25 mg/liter amphotericin B and YPD plates containing 100 μg/ml tetracycline, respectively. The percentage of C. albicans SC5314 and S. aureus SH1000 cells relative to the number of cells after DMSO or ethanol control treatment was determined.

Series [7] relates to eukaryotic tumor cell lines, bone cells, and the nematode Caenorhabditis elegans. More on the design: method as in PMID 25325155. To be noted: C. elegans; cited from earlier work.

On to `CCCCCCCCn1c(-c2ccccc2)cnc1NC1CCCC1` [Compound 8e], for which, in series [1], the “proliferation of MSC (trypan blue)” value is “slightly reduced”.
On to `CCCCCCCCn1c(-c2ccc(Br)cc2)cnc1NCC(C)C` [Compound 8c], for which the “metabolic activity of OB (MTT) compared to solvent control” value with osteoblasts (OB) [2] is given as “increased”. In series [3], the “metabolic activity of MSC (MTT) compared to solvent control” value is listed as “increased”. Further, in the series with osteoblasts (OB) [4], the “survival of OB allowed” value is on record as “more than 3 weeks” and the “calcium deposition of OB (normalized by DNA)” value was “induced”. In series [5], the “survival of MSC allowed” value was “more than 3 weeks” and the “calcium deposition of MSC (normalized by DNA)” value is recorded as “induced”.
`CC(C)CNc1ncc(-c2ccc(Cl)cc2)[nH]1` [Compound 3]: in series [6] (25 μM compound), the “% CFU survival, C. albicans” value is on record as 165.7% and the “% CFU survival, S. aureus” value amounted to 124.6%. For the same compound, in series [6] (100 μM compound), the “% CFU survival, C. albicans” value was 141.3% and the “% CFU survival, S. aureus” value came to 51.8%.
For `CCCCCCCCn1c(-c2ccc(Cl)cc2)cnc1NC1CCCC1` [Compound 8f], in series [1], the “proliferation of MSC (trypan blue)” value was “slightly reduced”.
`Clc1ccc(-c2cnc(NC3CCCC3)[nH]2)cc1` [Compound 5]: in series [6] (25 μM compound), the “% CFU survival, C. albicans” value was determined as 232.4% and the “% CFU survival, S. aureus” value is on record as 75.4%. In series [6] (100 μM compound), the “% CFU survival, C. albicans” value is reported as 120.6% and the “% CFU survival, S. aureus” value came to 74.5%.
In the case of `CCCCCCCCn1c(-c2ccc(Cl)c(Cl)c2)cnc1NCC(C)C` [Compound 8d], the “metabolic activity of OB (MTT) compared to solvent control” value in the series on osteoblasts (OB) [2] is listed as “increased”. In addition, the “metabolic activity of MSC (MTT) compared to solvent control” value in series [3] was “increased”. In addition, the “proliferation of MSC (trypan blue)” value in series [1] is on record as “increase in proliferation”. Besides, in the series on osteoblasts (OB) [4], the “survival of OB allowed” value is given as “more than 3 weeks” and the “calcium deposition of OB (normalized by DNA)” value is given as “none of the compounds at 12.5 μM negatively affected the calcium deposition”. Besides, in series [5], the “survival of MSC allowed” value is on record as “more than 3 weeks” and the “calcium deposition of MSC (normalized by DNA)” value is “none of the compounds at 12.5 μM negatively affected the calcium deposition”.
Turning to `CCCCCCCCn1c(-c2ccc(Cl)c(Cl)c2)cnc1NC1CCCC1` [Compound 8h], the “metabolic activity of OB (MTT) compared to solvent control” value with osteoblasts (OB) [2] is recorded as “increased”. Further, the “metabolic activity of MSC (MTT) compared to solvent control” value in series [3] is “increased”. In the series on osteoblasts (OB) [4], the “survival of OB allowed” value is given as “more than 3 weeks” and the “calcium deposition of OB (normalized by DNA)” value is on record as “induced”. In series [5], the “survival of MSC allowed” value is recorded as “more than 3 weeks” and the “calcium deposition of MSC (normalized by DNA)” value is given as “induced”.
Take `Brc1ccc(-c2cnc(NCCn3cc(C4CC4)nn3)[nH]2)cc1` [Compound 6]: the “toxicity (previously reported)” value in series [7] is recorded as “higher level of toxicity”.
With `CCCCCCCCn1c(-c2ccc(Cl)cc2)cnc1N` [Compound 2], in series [6] (25 μM compound), the “% CFU survival, C. albicans” value is reported as 183.8% and the “% CFU survival, S. aureus” value amounted to 87.7%. In series [6] (100 μM compound), the “% CFU survival, C. albicans” value is given as 0.9% and the “% CFU survival, S. aureus” value is reported as 0.2%. Further, the “toxicity (previously reported)” value in series [7] was “strong toxicity”.
On to `CCCCCCCCn1c(-c2ccc(Br)cc2)cnc1NC1CCCC1` [Compound 8g], for which, in the series on osteoblasts (OB) [2], the “metabolic activity of OB (MTT) compared to solvent control” value is listed as “increased”. Besides, in series [3], the “metabolic activity of MSC (MTT) compared to solvent control” value was “increased”. In series [1], the “proliferation of MSC (trypan blue)” value is recorded as “slightly reduced”. In addition, in the series on osteoblasts (OB) [4], the “survival of OB allowed” value was “more than 3 weeks” and the “calcium deposition of OB (normalized by DNA)” value is “induced”. In addition, in series [5], the “survival of MSC allowed” value is on record as “more than 3 weeks” and the “calcium deposition of MSC (normalized by DNA)” value is “induced”.
For `CCCCCCCCn1c(-c2ccc(Cl)cc2)cnc1NCC(C)C` [Compound 8b], in the series with osteoblasts (OB) [4], the “survival of OB allowed” value is on record as “more than 3 weeks” and the “calcium deposition of OB (normalized by DNA)” value is “induced”. Also, in series [5], the “survival of MSC allowed” value is “more than 3 weeks” and the “calcium deposition of MSC (normalized by DNA)” value was “induced”.
With `CCCCCCCCn1c(-c2ccccc2)cnc1NCC(C)C` [Compound 8a], the “proliferation of MSC (trypan blue)” value in series [1] is given as “slightly reduced”.
